Test results from PMC10041525, “New Dual Inhibitors of Bacterial Topoisomerases with Broad-Spectrum Antibacterial Activity and In Vivo Efficacy against Vancomycin-Intermediate Staphylococcus aureus” (Journal of Medicinal Chemistry, 2023).
Several values for one entry are separate records, joined by “and”; a condition that tells them apart may be missing. Equal values may be shown once.

Assays:
E. faecalis ATCC 29212 [1] = test system: E. faecalis ATCC 29212; parameters: method as in earlier work; settings: QC range for E. faecalis ATCC 29212, ref CLSI; cited from earlier work
E. coli ATCC 25922 = test: IHMA QC MIC; type: cell-based
S. pneumoniae (n = 12) = test: MIC broth microdilution at IHMA Europe; type: cell-based
[2] = test system: Haemophilus influenzae (n = 14); test: MIC broth microdilution at IHMA Europe; type: cell-based, H. influenzae
S. pneumoniae ATCC 49619 [3] = test system: S. pneumoniae ATCC 49619; parameters: method as in earlier work; settings: QC range for S. pneumoniae ATCC 49619, ref CLSI; cited from earlier work
P. aeruginosa ATCC 27853 = test: IHMA QC MIC; type: cell-based
E. faecium (n = 13) = test: MIC broth microdilution at IHMA Europe; type: cell-based
H. influenzae ATCC 49766 = test: IHMA QC MIC; type: cell-based
Description: (§1) Supplement jm2c01905_si_004.xlsx, sheet "QC" | column: MIC [µg/mL]

[4] = test system: N. gonorrhoeae ATCC 49226; test: IHMA QC MIC; type: cell-based; settings: QC strain N. gonorrhoeae ATCC 49226, test date 2021-11-18
Description: as §1

S. pneumoniae ATCC 49619 [5] = test: IHMA QC MIC; type: cell-based
Description: as §1

E. faecalis ATCC 29212 [6] = test: IHMA QC MIC; type: cell-based
Description: as §1

H. influenzae ATCC 49247 = test: IHMA QC MIC; type: cell-based
Description: as §1

[7] = test system: N. gonorrhoeae ATCC 49226; parameters: method as in earlier work; settings: QC range for N. gonorrhoeae ATCC 49226, ref CLSI; cited from earlier work
[8] = test system: Neisseria gonorrhoeae (n = 12); test: MIC broth microdilution at IHMA Europe; type: cell-based

## penicillin
E. faecalis ATCC 29212 [1]
  MIC, CLSI Range: 1 to 4 µg/mL
E. coli ATCC 25922; QC strain E. coli ATCC 25922, test date 2021-11-11
  MIC: 32 µg/mL and 16 µg/mL
E. coli ATCC 25922; QC strain E. coli ATCC 25922, test date 2021-11-26
  MIC: 32 µg/mL
S. pneumoniae (n = 12); MIC 0.5 µg/mL
  Cumulative % at MIC: 25.0%
  No. of isolates at MIC: 2
S. pneumoniae (n = 12); MIC 1 µg/mL
  Cumulative % at MIC: 41.7%
  No. of isolates at MIC: 2
S. pneumoniae (n = 12); MIC 2 µg/mL
  Cumulative % at MIC: 83.3%
  No. of isolates at MIC: 5
S. pneumoniae (n = 12); MIC […] µg/mL
  Cumulative % at MIC: 100.0%
  No. of isolates at MIC: 2
S. pneumoniae (n = 12); MIC ≤0.03 µg/mL
  Cumulative % at MIC: 8.3%
  No. of isolates at MIC: 1
S. pneumoniae (n = 12); S. pneumoniae IHMA N° 1775387
  MIC: 2 µg/mL
S. pneumoniae (n = 12); S. pneumoniae IHMA N° 1776057
  MIC: 1 µg/mL
S. pneumoniae (n = 12); S. pneumoniae IHMA N° 1785617
  MIC: 4 µg/mL
S. pneumoniae (n = 12); S. pneumoniae IHMA N° 1800765
  MIC: 0.5 µg/mL
S. pneumoniae (n = 12); S. pneumoniae IHMA N° 1811259
  MIC: 1 µg/mL
S. pneumoniae (n = 12); S. pneumoniae IHMA N° 1831562
  MIC: ≤0,03 µg/mL
S. pneumoniae (n = 12); S. pneumoniae IHMA N° 1902609
  MIC: 2 µg/mL
S. pneumoniae (n = 12); S. pneumoniae IHMA N° 1979675
  MIC: 2 µg/mL
S. pneumoniae (n = 12); S. pneumoniae IHMA N° 1991963
  MIC: 2 µg/mL
S. pneumoniae (n = 12); S. pneumoniae IHMA N° 2057487
  MIC: 2 µg/mL
S. pneumoniae (n = 12); S. pneumoniae IHMA N° 2073087
  MIC: 4 µg/mL
S. pneumoniae (n = 12); S. pneumoniae IHMA N° 2117109
  MIC: 0.5 µg/mL
[2]; H. influenzae IHMA N° 1227715
  MIC: 32 µg/mL
[2]; H. influenzae IHMA N° 1241620
  MIC: 16 µg/mL
[2]; H. influenzae IHMA N° 1244149
  MIC: 32 µg/mL
[2]; H. influenzae IHMA N° 1249803
  MIC: 4 µg/mL
[2]; H. influenzae IHMA N° 1254355
  MIC: 4 µg/mL
[2]; H. influenzae IHMA N° 1258580
  MIC: 16 µg/mL
[2]; H. influenzae IHMA N° 1262734
  MIC: 16 µg/mL
[2]; H. influenzae IHMA N° 1272723
  MIC: 16 µg/mL
[2]; H. influenzae IHMA N° 1286846
  MIC: 16 µg/mL
[2]; H. influenzae IHMA N° 1337530
  MIC: 32 µg/mL
[2]; H. influenzae IHMA N° 1440085
  MIC: 16 µg/mL
[2]; H. influenzae IHMA N° 1479509
  MIC: 16 µg/mL
[2]; H. influenzae IHMA N° 1952952
  MIC: 8 µg/mL
[2]; H. influenzae IHMA N° 2047461
  MIC: >32 µg/mL
[2]; MIC […] µg/mL
  Cumulative % at MIC: 71.4%
  No. of isolates at MIC: 7
[2]; MIC 32 µg/mL
  Cumulative % at MIC: 92.9%
  No. of isolates at MIC: 3
[2]; MIC >32 µg/mL
  Cumulative % at MIC: 100.0%
  No. of isolates at MIC: 1
S. pneumoniae ATCC 49619 [3]
  MIC, CLSI Range: 0,25 - 1 µg/mL
P. aeruginosa ATCC 27853; QC strain P. aeruginosa ATCC 27853, test date 2021-11-11
  MIC: >32 µg/mL and 32 µg/mL
P. aeruginosa ATCC 27853; QC strain P. aeruginosa ATCC 27853, test date 2021-11-26
  MIC: >32 µg/mL
E. faecium (n = 13); E. faecium IHMA N° 1764866
  MIC: >32 µg/mL
E. faecium (n = 13); E. faecium IHMA N° 1765436
  MIC: >32 µg/mL
E. faecium (n = 13); E. faecium IHMA N° 1765746
  MIC: >32 µg/mL
E. faecium (n = 13); E. faecium IHMA N° 1893573
  MIC: >32 µg/mL
E. faecium (n = 13); E. faecium IHMA N° 1893846
  MIC: >32 µg/mL
E. faecium (n = 13); E. faecium IHMA N° 1893942
  MIC: >32 µg/mL
E. faecium (n = 13); E. faecium IHMA N° 1894055
  MIC: >32 µg/mL
E. faecium (n = 13); E. faecium IHMA N° 1897027
  MIC: >32 µg/mL
E. faecium (n = 13); E. faecium IHMA N° 1897101
  MIC: >32 µg/mL
E. faecium (n = 13); E. faecium IHMA N° 1904592
  MIC: >32 µg/mL
E. faecium (n = 13); E. faecium IHMA N° 2075051
  MIC: >32 µg/mL
E. faecium (n = 13); E. faecium IHMA N° 2077718
  MIC: >32 µg/mL
E. faecium (n = 13); E. faecium IHMA N° 2083787
  MIC: >32 µg/mL
E. faecium (n = 13); MIC >32 µg/mL
  Cumulative % at MIC: 100.0%
  No. of isolates at MIC: 13
H. influenzae ATCC 49766; QC strain H. influenzae ATCC 49766, test date 2021-11-11
  MIC: 0.25 µg/mL
H. influenzae ATCC 49766; QC strain H. influenzae ATCC 49766, test date 2021-11-26
  MIC: 0.25 µg/mL
[4]
  MIC: 0.25 µg/mL
S. pneumoniae ATCC 49619 [5]; QC strain S. pneumoniae ATCC 49619, test date 2021-11-11
  MIC: 0.25 µg/mL
S. pneumoniae ATCC 49619 [5]; QC strain S. pneumoniae ATCC 49619, test date 2021-11-26
  MIC: 0.25 µg/mL
E. faecalis ATCC 29212 [6]; QC strain E. faecalis ATCC 29212, test date 2021-11-11
  MIC: 2 µg/mL
E. faecalis ATCC 29212 [6]; QC strain E. faecalis ATCC 29212, test date 2021-11-26
  MIC: 2 µg/mL
H. influenzae ATCC 49247; QC strain H. influenzae ATCC 49247, test date 2021-11-11
  MIC: 4 µg/mL and 8 µg/mL
H. influenzae ATCC 49247; QC strain H. influenzae ATCC 49247, test date 2021-11-26
  MIC: 4 µg/mL
[7]
  MIC, CLSI Range: 0,25 - 1 µg/mL
[8]; MIC 0.5 µg/mL
  Cumulative % at MIC: 33.3%
  No. of isolates at MIC: 2
[8]; MIC 1 µg/mL
  Cumulative % at MIC: 50.0%
  No. of isolates at MIC: 2
[8]; MIC 2 µg/mL
  Cumulative % at MIC: 75.0%
  No. of isolates at MIC: 3
[8]; MIC >16 µg/mL
  Cumulative % at MIC: 100.0%
  No. of isolates at MIC: 2
[8]; MIC […]
  Cumulative % at MIC: 16.7%
  No. of isolates at MIC: 2
[8]; MIC […] µg/mL
  Cumulative % at MIC: 83.3%
  No. of isolates at MIC: 1
[8]; isolate IHMA 1123853
  MIC: 4 µg/mL
[8]; isolate IHMA 1130935
  MIC: 0.25 µg/mL
[8]; isolate IHMA 1130989
  MIC: 0.25 µg/mL
[8]; isolate IHMA 1130991
  MIC: 2 µg/mL
[8]; isolate IHMA 1137292
  MIC: 1 µg/mL
[8]; isolate IHMA 1145734
  MIC: 2 µg/mL
[8]; isolate IHMA 1145735
  MIC: >16 µg/mL
[8]; isolate IHMA 1165897
  MIC: >16 µg/mL
[8]; isolate IHMA 1194748
  MIC: 0.5 µg/mL
[8]; isolate IHMA 1194750
  MIC: 0.5 µg/mL
[8]; isolate IHMA 1546199
  MIC: 2 µg/mL
[8]; isolate IHMA 1546215
  MIC: 1 µg/mL
